Key:
[1] = test system: murine HPK1; assay: IVK assay of HA-tagged murine HPK1 (wild type and mutants) transfected into Jurkat cells; type: cell-based, mouse; conditions: Jurkat transfectants
Excerpt: The pcDNA3 vector containing mouse cDNA encoding the HA-tagged wild type murine HPK1 and a proline-rich-deleted construct were constructed by Dr. F. Kiefer (Liu et al., 2000, J. Immunol. 165:1417). QuickChange™ mutagenesis system was used to alter the wild type HPK1 construct to encode the desired point mutations (Stratagene, La Jolla, Calif.). Mutated constructs were sequenced to verify the presence of the desired mutation and for the absence of PCR-generated mutations.
Jurkat T cells (1.5×10^7) were transfected as described in (Chang et al., 1998, Mol. Cell. Biol. 18:4986). Whole cell lysates derived from resting or stimulated transfectants were subjected to immunoprecipitations by the indicated antibodies, and were subjected to in vitro kinase reactions as described in (Kiefer et al., 1996, EMBO J. 15:7013 and (Sawasdikosol et al., 2003, Blood 101:3687). Anti-murine HPK1 #7 antibody was used to detect the ectopically expressed HPK wild type and mutant murine HPK1.
To assess the role of the proline-rich motifs in PGE2-induced HPK1 activation, cells were transfected with constructs that encoded either the HA-tagged wild type HPK1 or a mutant form in which the P1, P2, and P4 proline-rich motifs (HA-ΔP-HPK1) were deleted (FIG. 8A). Transfectants were left untreated, stimulated by 10 pM of PGE2, or stimulated by TCR crosslinking. The ectopically expressed HPK1 proteins were subjected to anti-HA immunoprecipitation and were subjected to IVK assay. […] This limits the possibility that adapter proteins play a role in this process.
To assess the importance of arginine 168, arginine 169 and serine 171 in PGE2-induced HPK1 activation, a panel of mutant HPK1 expression constructs that encode a point mutation at each of these amino acids was created. In these mutants, arginines were changed to lysines and serine was changed to alanine. These mutant HPK1 constructs were transfected into Jurkat cells and the ectopically expressed HA-tagged HPK1 were immunoprecipitated from resting or PGE2 stimulated cells.

[2] = biological target: T1, EP2 receptor (Homo sapiens, UniProt P43116); assay: IVK assay of HA-HPK1 from 293-EP2 transfectants; type: cell-based; conditions: PGE2 stimulation
T1 construct: expressed in transfected cells; host or cells: HEK 293 (293-EP2), also transiently transfected with HA-HPK1
T1 sequence (P43116 whole entry): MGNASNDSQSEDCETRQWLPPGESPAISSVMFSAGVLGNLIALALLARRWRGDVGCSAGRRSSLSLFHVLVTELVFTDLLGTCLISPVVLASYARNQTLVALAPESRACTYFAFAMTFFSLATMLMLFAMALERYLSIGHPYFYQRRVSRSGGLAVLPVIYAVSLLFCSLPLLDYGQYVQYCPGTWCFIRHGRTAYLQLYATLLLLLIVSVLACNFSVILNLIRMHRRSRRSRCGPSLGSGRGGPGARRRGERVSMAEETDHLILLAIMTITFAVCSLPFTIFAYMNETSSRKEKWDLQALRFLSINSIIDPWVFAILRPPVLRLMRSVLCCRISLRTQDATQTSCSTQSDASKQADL

[3] = test system: wild type HEK 293-EBNA cell line; assay: IVK assay of HA-HPK1 from wild type HEK 293-EBNA cells (no EP2/EP4); type: cell-based, human; conditions: absence of EP2 and EP4 receptor, PGE2 stimulation
[4] = test system: HPK1; assay: Western blot of immunoprecipitated HPK1 with anti-phosphorylated PKA substrate antibody; type: cell-based, human; conditions: Jurkat T cells stimulated with PGE2 for 10 min
Method: The primary sequence of HPK1 was examined for the preferred PKA phosphorylation site on HPK1. Within the activation loop of HPK1, there exists a perfect PKA phosphorylation site at serine 171 (FIG. 12A). This serine is conserved in all members of the KHS subfamily of STE20 kinases. To determine whether PKA can directly phosphorylate HPK1 upon stimulation by PGE2, experiments were conducted using an anti-phospho PKA substrate antibody that recognizes the arginine-based motif that is present at sites that are phosphorylated by PKA (FIG. 12A).
In these experiments, Jurkat T cells were stimulated with PGE2 for 10 min., lysed, and immunoprecipitated HPK1 was subjected to Western blot analysis using anti-phosphorylated PKA substrate antibody. […] Similarly, the antibody also recognized HPK1 immunoprecipitated from cells that were treated with anti-CD3 (FIG. 12B, lane 2).

[5] = test system: HPK1; assay: HPK1 IVK assay in primary splenocytes / T lymphocytes; type: cell-based, mouse; conditions: primary T lymphocytes (C57BL/6 splenocytes), 10 nM PGE2, 5 min
Method: Splenocytes from wild type C57BL/6 were harvested, lysed with RBC lysis buffer (Sigma) and stimulated with 1 μg/ml plate bound anti-CD3 and anti-CD28 or 10 nM PGE2 alone (Calbiochem) for 5 min. at 37° C. Whole cell lysates were subjected to immunoprecipitation with anti-HPK1 antibodies #5 and #6, then subjected to IVK as described in Kiefer et al. (1996, EMBO J. 15:7013-7025). Anti-HPK1 antibody #2 was used as a blotting antibody.
Splenocytes from wild type C57BL/6 were harvested, lysed with RBC lysis buffer (Sigma) and stimulated with 1 μg/ml plate bound anti-CD3 and 1 μg/ml soluble anti-CD28 or with 10 nM PGE2 (Calbiochem) for 5 min. at 37° C. Whole cell lysates were subjected to immunoprecipitation with anti-HPK1 antibodies #5 and #6 and then subjected to IVK as described (1). Anti-HPK1 antibody #2 was used as a blotting antibody.

[6] = test system: T cells; assay: Mixed leukocyte reaction (MLR) T cell proliferation, 3H-thymidine; type: cell-based, mouse; conditions: MLR with LPS-matured BMDCs, addition of PGE2
Method: MLR was performed as described in Sallusto et al. (1994, J. Exp. Med. 179:1009-1118) with minor modifications. Naïve T cells from an allogeneic SJL mouse were purified using CD62L magnetic beads (Milentyi Biotech, Inc., CA). In a 96-well round bottom plate, T cells (1×10^5) were used as responders and incubated with HPK1^−/− and wild type, immature or LPS-matured bone marrow derived dendritic cells (BMDCs) as stimulators. Naïve T cells plus 10 μg/ml ConA were used as a positive control.
In these experiments, T cells were purified and subjected to a mixed leukocyte reaction (MLR) with wild type allogeneic BMDCs in the presence or absence of PGE2. […] To assess this, the same study was repeated under conditions where the magnitude of the MLR response was similar in the two cell types by manipulating the T cell to DC ratio. […] Similar resistance to PGE2 was observed when HPK1^−/− T cells were stimulated by T cell receptor activation with anti-CD3- and anti-CD28-mediated crosslinking in the presence of PGE2 (FIG. 20B).

[7] = test system: T cells; assay: FACS of TCR-stimulated T cells: Foxp3 expression and side-scatter profile; type: cell-based, mouse
Excerpt: This is due in part to the fact that HPK^−/− T cells produce more IL-2. However, other factors may play a role in the increased percentage of cells expressing CD25. To determine whether regulatory T cell (Treg) transcription factor, Foxp3, was a factor, the expression of […] in HPK^−/− cells was examined in this population. It has been shown that PGE2 induces the expression of Foxp3 in both human and mouse T cells. Because of the inhibitory nature of these T cell subsets, there was a question of whether the conditions of stimulation generated fewer Tregs in the HPK1^−/− culture, as this might explain the enhanced functionality of these T cells.
However, a decrease was detected in the number of cells in the side-scatter profile of wild type T cells exposed to PGE2, indicating a decrease in cell viability. […] Indeed, when these cells were stained for annexin V to determine the amount of apoptosis, PGE2 did increase the number of wild type cells undergoing apoptosis by over 75%, compared to 47% in cells not treated with PGE2.

**Q.** Which “kinase response of HA-HPK1 (wild type)” value ([1]; 10 pM PGE2) does the source give for `CCCCC[C@H](O)/C=C/[C@H]1[C@H](O)CC(=O)[C@@H]1C/C=C\CCCC(=O)O` [PGE2, prostaglandin E2] here?
**A.** The value was “responded competently”.

**Q.** And the “kinase response of HPK1 proline-rich deleted mutant (HA-ΔP-HPK1)” value ([1]; 10 pM PGE2)?
**A.** The value was “responded to PGE2 stimulation”.

**Q.** What about the “kinase response of HPK1 serine 171 to alanine mutant to PGE2” value ([1]; PGE2 stimulated) of the same compound?
**A.** Its value is “ablated the response”.

**Q.** And the “reduction of responsiveness to PGE2 stimulation, HPK1 arginine to lysine mutation at residue 168 or 169” value ([1]; PGE2 stimulated)?
**A.** The value was “approximately 90%”.

**Q.** What about the “HPK1 kinase activity (IVK), 293-EP2 transfectants” value [2] of the same compound?
**A.** The value was “responded robustly”.

**Q.** What about the “HPK1 kinase activity (IVK), wild type HEK 293-EBNA” value [3] of the same compound?
**A.** Its value is “failed to respond”.

**Q.** And the “recognition of HPK1 by anti-phosphorylated PKA substrate antibody” value [4]?
**A.** The value was “recognized the phosphorylated HPK1”.

**Q.** And the “increase in HPK1 kinase activity” value [5]?
**A.** The value was “three-fold”.

**Q.** And the “inhibition of proliferation, HPK1−/− T cells, MLR” value [6]?
**A.** The value was roughly 25%.

**Q.** And the “inhibition of proliferation, wild type T cells, MLR” value [6]?
**A.** The value was roughly 90%.

**Q.** And the Foxp3 expression ([7]; HPK+/+ or HPK−/− cells, TCR crosslinking 3 days, with versus without PGE2)?
**A.** The Foxp3 expression was “did not induce a higher Foxp3 expression”.

**Q.** What about the “number of cells in the side-scatter profile (cell viability), wild type T cells” value ([7]; exposed to PGE2) of the same compound?
**A.** The value was “decrease”.

**Q.** What about the “pattern of side-scatter, HPK1−/− T cells” value ([7]; with or without PGE2) of the same compound?
**A.** The value was “no difference”.

Reference: US20070087988A1, “Hematopoietic progenitor kinase 1 for modulation of an immune response” (New York University, priority 2005, published 2007)
